In US20230096028A1, “BICYCLIC HETEROCYCLYL COMPOUNDS AND USES THEREOF” (Revolution Medicines, Inc., priority 2019, published 2023):

Columns and labels:
[1] = system: PC-9 cells (EGFR Ex19Del); assay: Potency Assay: pERK (SOS1 pERK IC50 Assay, AlphaLISA SureFire Ultra p-ERK1/2); format: cell-based; conditions: Homo sapiens; PC-9 cells (EGFR Ex19Del), 1 hour incubation, AlphaLISA p-ERK1/2; read-out: SOS1 pERK IC50
Outline: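 Cellular pERK1/2 by AlphaLISA SureFire Ultra after 1 h compound exposure (37° C., highest concentration 10 μM, 3-fold steps, duplicates) of EGFR Ex19Del PC-9 cells seeded the day before. A 4-parameter fit of signal versus log concentration gives IC50.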

[2] = biological target: T1, SOS1 catalytic domain (residues 564-1049) (Homo sapiens, UniProt Q07889); assay: Potency Assay: binding affinity to SOS1 using Surface Plasmon Resonance (SPR); set-up: SOS1 catalytic domain (residues 564-1049) immobilized on a sensor chip; conditions: immobilized SOS1 catalytic domain (residues 564-1049), read-out: SOS1 SPR Equilibrium Kd
T1 sequence (Q07889 564-1049): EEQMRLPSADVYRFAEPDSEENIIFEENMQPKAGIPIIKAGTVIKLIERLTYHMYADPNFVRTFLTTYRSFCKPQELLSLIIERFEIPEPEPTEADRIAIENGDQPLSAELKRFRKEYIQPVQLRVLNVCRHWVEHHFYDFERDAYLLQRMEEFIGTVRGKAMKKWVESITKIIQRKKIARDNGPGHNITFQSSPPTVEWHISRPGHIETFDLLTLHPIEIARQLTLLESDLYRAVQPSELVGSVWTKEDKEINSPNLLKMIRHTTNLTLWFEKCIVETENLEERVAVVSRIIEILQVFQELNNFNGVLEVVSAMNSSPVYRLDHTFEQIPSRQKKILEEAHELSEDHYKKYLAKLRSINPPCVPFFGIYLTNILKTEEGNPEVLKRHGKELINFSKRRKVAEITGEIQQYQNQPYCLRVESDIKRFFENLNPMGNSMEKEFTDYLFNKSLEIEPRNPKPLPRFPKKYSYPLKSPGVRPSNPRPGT
Outline: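 Kd was obtained by plotting binding response, taken just before association ended, versus compound concentration on a Biacore 8K. Compounds flowed at 50 μL/min over streptavidin-captured avi-SOS1 catalytic domain (~6000 RU), followed by buffer dissociation; HEPES 0.01 M/NaCl 0.15 M/0.05% P20 buffer, double-referenced.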

[3] = biological target: T1, SOS1 catalytic domain (residues 564-1049); assay: Mode of Action Assay: inhibition of SOS1 nucleotide exchange activity (SOS1 TR-FRET IC50 Assay)

IC50 [1] | Kd [2] | IC50 [3] | SMILES
< 1000 nM | < 400 nM | < 1000 nM | COC1CCN(S(=O)(=O)N2CCc3nc(Cl)nc(N[C@H](C)c4cc(N)cc(C(F)(F)F)c4)c3C2)CC1 [Example 179]
< 1000 nM | < 400 nM | < 1000 nM | C[C@@H](Nc1nc(Cl)nc2c1CN(S(=O)(=O)N1CCOCC1)CC2)c1cccc(C(F)(F)CO)c1 [Example 181]
< 1000 nM | < 400 nM | < 1000 nM | C[C@@H](Nc1nc(Cl)nc2c1CN(S(=O)(=O)N1CCN(C)CC1)CC2)c1cc(N)cc(C(F)(F)F)c1 [Example 184]
> 1000 nM | < 400 nM | > 1000 nM | C[C@@H](Nc1nc(Cl)nc2c1CN(C(=O)C13CC(O)(C1)C3)CC2)c1cc(N)cc(C(F)(F)F)c1 [Example 193]
< 1000 nM | > 400 nM | > 1000 nM | C[C@@H](Nc1nc(Cl)nc2c1CN(C(=O)C1(C#N)CC1)CC2)c1cc(N)cc(C(F)(F)F)c1 [Example 194]
< 1000 nM | < 400 nM | > 1000 nM | C[C@@H](Nc1nc(Cl)nc2c1CN(C(=O)[C@@H]1C[C@@H]1C#N)CC2)c1cc(N)cc(C(F)(F)F)c1 [Example 205]
> 1000 nM | > 400 nM | < 1000 nM | COC(=O)N1C[C@@H]2COC[C@]2(C(=O)N2CCc3nc(Cl)nc(N[C@H](C)c4cc(N)cc(C(F)(F)F)c4)c3C2)C1 [Example 221]
> 1000 nM | < 400 nM | > 1000 nM | C[C@@H](Nc1nc(Cl)nc2c1CN(C(=O)C1(O)COC1)CC2)c1cc(N)cc(C(F)(F)F)c1 [Example 226]

The remaining lines, values behind:

SMILES | IC50 [1] | Kd [2] | IC50 [3]
C[C@@H](Nc1nc(Cl)nc2c1CN(C(=O)N1CCOCC1)C2)c1cccc(C(F)(F)CO)c1 [Example 168, [2-chloro-4-[[(1R)-1-[3-(1,1-difluoro-2-hydroxy-ethyl)phenyl]ethyl]amino]-5,7-dihydropyrrolo[3,4-d]pyrimidin-6-yl]-morpholino-methanone] | < 1000 nM | < 400 nM | < 1000 nM
CC(Nc1nc(Cl)nc2c1CN(C(=O)N1CCOCC1)C2)c1cccc(C(F)(F)CO)c1 (stereo not drawn) [Example 171, [2-chloro-4-[1-[3-(1,1-difluoro-2-hydroxy-ethyl)phenyl]ethylamino]-5,7-dihydropyrrolo[3,4-d]pyrimidin-6-yl]-morpholino-methanone] | < 1000 nM | < 400 nM | < 1000 nM
C[C@@H](Nc1nc(Cl)nc2c1CN(S(=O)(=O)N1CC3CCC(C1)O3)CC2)c1cc(N)cc(C(F)(F)F)c1 [Example 180] | < 1000 nM | < 400 nM | < 1000 nM
C[C@@H](Nc1nc(Cl)nc2c1CN(S(=O)(=O)N1CCNCC1)CC2)c1cc(N)cc(C(F)(F)F)c1 [Example 183] | < 1000 nM | < 400 nM | < 1000 nM
C[C@@H](Nc1nc(Cl)nc2c1CN(S(=O)(=O)N1CCOCC1)CC2)c1cccc(C(F)(F)F)c1 [Example 185] | > 1000 nM | > 400 nM | < 1000 nM
C[C@@H](Nc1nc(Cl)nc2c1CN(C(=O)C13COC(C1)C3)CC2)c1cc(N)cc(C(F)(F)F)c1 [Example 212] | < 1000 nM | > 400 nM | > 1000 nM
C[C@@H](Nc1nc(Cl)nc2c1CN(C(=O)C1CC1)CC2)c1cc(N)cc(C(F)(F)F)c1 [Example 219] | < 1000 nM | < 400 nM | < 1000 nM
C[C@@H](Nc1nc(Cl)nc2c1CN(C(=O)[C@@]13COC[C@@H]1CN(S(C)(=O)=O)C3)CC2)c1cc(N)cc(C(F)(F)F)c1 [Example 222] | > 1000 nM | > 400 nM | > 1000 nM
C[C@@H](Nc1nc(Cl)nc2c1CN(C(=O)[C@@H]1C[C@H]1C#N)CC2)c1cc(N)cc(C(F)(F)F)c1 [Example 223] | < 1000 nM | < 400 nM | < 1000 nM
C[C@@H](Nc1nc(Cl)nc2c1CN(C(=O)C1(CO)COC1)CC2)c1cc(N)cc(C(F)(F)F)c1 [Example 225] | < 1000 nM | < 400 nM | < 1000 nM
